Measurements taken from patent US20180007908A1, “Pesticidal Mixtures” (BASF SE, priority 2007, published 2018).

What was measured:
Type in all cases: cell-based
Pyricularia oryzae [1] = experiment: microbe, parasite or virus in culture; details: 168 h, read-out: Observed activity (%)
Botrytis cinerea = experiment: Use Example No. 6: activity against gray mold Botrytis cinerea in the microtiter test (Botrci); details: 168 h, day 7 post-inoculation, efficacy as % of untreated control, read-out: Observed activity (%)
Pyricularia oryzae [2] = experiment: microbe, parasite or virus in culture; details: 168 h, read-out: Observed activity (%); remark: listed apart in the source

Compound | inhibition at 2 ppm (Pyricularia oryzae [1]) [%] | inhibition at 0.016 ppm (Botrytis cinerea) [%] | inhibition at 0.001 ppm (Pyricularia oryzae [2]) [%]
N#Cc1nn(-c2c(Cl)cc(C(F)(F)F)cc2Cl)c(N)c1[S+]([O-])C(F)(F)F (stereo not drawn) [fipronil] | 5 | – | –
COC(=O)N(OC)c1ccccc1COc1ccn(-c2ccc(Cl)cc2)n1 [pyraclostrobin] | – | 4 | 31
